Laboratory results as given in ChEMBL document CHEMBL4483862, “Open-source discovery of chemical leads for next-generation chemoprotective antimalarials” (2018).

Test system: Plasmodium berghei
Assay: Luciferase/luciferin-expressing antifolate-resistant parasites were used to infect a culture of HepG2 cells that were pre-incubated with compounds. Infected hepatocytes emit light due to the luciferase reaction. Assay results are presented as the percent inhibition of light emission compared to control. […]
Assay type: functional
Settings: sporozoite; for IC90: read-out: LUCIFERASE INFECTION ASSAY - IC90

Structure (SMILES)	IC90 [µM]	other results
C=CCN(CC(=O)NC1CCS(=O)(=O)C1)S(=O)(=O)c1ccccc1C(F)(F)F (centres undefined)	> 10	IC50 (FFLUC_HILL_SLOPE 0.888, FFLUC_R_SQUARED 0.174, read-out: LUCIFERASE INFECTION ASSAY - IC50): > 10 µM
COc1ccc(Oc2sccc2[N+](=O)[O-])cc1	> 13.1	IC50 (FFLUC_HILL_SLOPE 0.766, FFLUC_R_SQUARED 0.0624, read-out: LUCIFERASE INFECTION ASSAY - IC50): > 13.1 µM
COC(=O)c1c(C)[nH]c(C(=O)Nc2ccc(C)cn2)c1C	2.63	IC50 (FFLUC_HILL_SLOPE 0.774, FFLUC_R_SQUARED 0.984, PBLUC_HILL_SLOPE 0.487, PBLUC_R_SQUARED 0.641, read-out: LUCIFERASE INFECTION ASSAY - IC50): 0.0288 µM
O=C(N/N=C/c1c(-c2ccccc2)nc2sc3c(n12)CCCC3)c1ccccc1	0.858	IC50 (FFLUC_HILL_SLOPE 0.805, FFLUC_R_SQUARED 0.757, PBLUC_HILL_SLOPE 1.27, PBLUC_R_SQUARED 0.855, read-out: LUCIFERASE INFECTION ASSAY - IC50): 0.153 µM
O=S(=O)(c1ccc(Cl)s1)N1CCC(C(c2ccccc2)c2ccccc2)CC1	> 7.64	IC50 (FFLUC_HILL_SLOPE 0.891, FFLUC_R_SQUARED 0.199, PBLUC_HILL_SLOPE 11.4, PBLUC_R_SQUARED 0.0957, read-out: LUCIFERASE INFECTION ASSAY - IC50): > 7.64 µM
CSc1c(C#N)c(-c2cc(C(C)(C)C)oc2C)nn1-c1ccc(I)cc1	> 6.91	IC50 (FFLUC_HILL_SLOPE 0.81, FFLUC_R_SQUARED 0.431, read-out: LUCIFERASE INFECTION ASSAY - IC50): > 6.91 µM
CC(C)CN(C(=O)c1ccc(N2CCCC2)c([N+](=O)[O-])c1)c1nc2ccccc2s1	0.595	IC50 (FFLUC_HILL_SLOPE 0.859, FFLUC_R_SQUARED 0.184, HEPG2TOX_HILL_SLOPE 0.259, HEPG2TOX_R_SQUARED 0.321, PBLUC_HILL_SLOPE 3.83, PBLUC_R_SQUARED 0.838, read-out: LUCIFERASE INFECTION ASSAY - IC50): 0.336 µM
CO/N=C1\CC(C)(C)Cc2c(-c3ccn(S(=O)(=O)c4ccc(Cl)cc4)n3)sc(SC)c21	> 6.65	IC50 (FFLUC_HILL_SLOPE 0.891, FFLUC_R_SQUARED 0.151, read-out: LUCIFERASE INFECTION ASSAY - IC50): > 6.65 µM
CCCCNC(=O)c1c(NC(=O)c2ccc(Cl)cc2Cl)nc2ccc(C)cn12	1.73	IC50 (FFLUC_HILL_SLOPE 0.85, FFLUC_R_SQUARED 0.0513, HEPG2TOX_HILL_SLOPE 0.9, HEPG2TOX_R_SQUARED 0.94, PBLUC_HILL_SLOPE 2.97, PBLUC_R_SQUARED 0.791, read-out: LUCIFERASE INFECTION ASSAY - IC50): 0.826 µM
NS(=O)(=O)c1ccc(Nc2nc(-c3cc(F)ccc3F)cs2)cc1	> 10	IC50 (FFLUC_HILL_SLOPE 0.845, FFLUC_R_SQUARED 0.288, PBLUC_HILL_SLOPE 13.0, 1.97, PBLUC_R_SQUARED 0.591, 0.616, read-out: LUCIFERASE INFECTION ASSAY - IC50): 8.85 µM
O=C(Nc1ccc(-c2nc3ccccc3[nH]2)cc1)C1CCC1	> 10	IC50 (FFLUC_HILL_SLOPE 0.826, FFLUC_R_SQUARED 0.895, PBLUC_HILL_SLOPE 0.293, PBLUC_R_SQUARED 0.545, read-out: LUCIFERASE INFECTION ASSAY - IC50): 0.543 µM
COc1cc(-c2cc(NCc3cccc(C(F)(F)F)c3)ncn2)cc(OC)c1OC	> 7.87	IC50 (FFLUC_HILL_SLOPE 0.883, FFLUC_R_SQUARED 0.362, PBLUC_HILL_SLOPE 0.944, PBLUC_R_SQUARED 0.459, read-out: LUCIFERASE INFECTION ASSAY - IC50): 0.859 µM
COc1ccc2c(c1)C(=O)C(=O)N2Cc1ccccc1Cl	> 10.9	IC50 (FFLUC_HILL_SLOPE 0.896, FFLUC_R_SQUARED 0.182, read-out: LUCIFERASE INFECTION ASSAY - IC50): > 10.9 µM
CC1=Nn2cc(-c3ccccc3)nc2SC1c1ccccc1 (centres undefined)	1.79	IC50 (FFLUC_HILL_SLOPE 0.814, FFLUC_R_SQUARED 0.91, PBLUC_HILL_SLOPE 0.719, PBLUC_R_SQUARED 0.79, read-out: LUCIFERASE INFECTION ASSAY - IC50): 0.084 µM
CCn1c(-c2ccccc2)c(C(=O)CSc2nnc(N)[nH]2)c2ccccc21	> 10	IC50 (FFLUC_HILL_SLOPE 0.751, FFLUC_R_SQUARED 0.0256, read-out: LUCIFERASE INFECTION ASSAY - IC50): > 10 µM
CC(C)n1c(Sc2ncc([N+](=O)[O-])s2)nc2cc(C(F)(F)F)ccc21	6.15	IC50 (FFLUC_HILL_SLOPE 0.818, FFLUC_R_SQUARED 0.623, HEPG2TOX_HILL_SLOPE 9.88, HEPG2TOX_R_SQUARED 0.799, PBLUC_HILL_SLOPE 37.4, PBLUC_R_SQUARED 0.0575, read-out: LUCIFERASE INFECTION ASSAY - IC50): 5.8 µM

Structure (SMILES)	IC90 [µM]	other results
CC(=O)c1c(C)[nH]c(C(=O)Nc2nc3ccccc3[nH]2)c1C	> 10	IC50 (FFLUC_HILL_SLOPE 0.837, FFLUC_R_SQUARED 0.9, PBLUC_HILL_SLOPE 0.352, PBLUC_R_SQUARED 0.709, read-out: LUCIFERASE INFECTION ASSAY - IC50): 0.0695 µM
Cc1cc(C(=O)CSc2nnc3n2CCCCC3)c(C)n1-c1ccccc1	> 10	IC50 (FFLUC_HILL_SLOPE 0.849, FFLUC_R_SQUARED 0.0339, PBLUC_HILL_SLOPE 12.7, PBLUC_R_SQUARED 0.127, read-out: LUCIFERASE INFECTION ASSAY - IC50): 9.31 µM
Cc1c(C)n(CCCO)c2ncn3nc(COc4ccccc4)nc3c12	0.36	IC50 (FFLUC_HILL_SLOPE 0.782, FFLUC_R_SQUARED 0.957, PBLUC_HILL_SLOPE 0.808, PBLUC_R_SQUARED 0.882, read-out: LUCIFERASE INFECTION ASSAY - IC50): 0.0238 µM
Nc1ncnc(N/N=C/c2ccc(C3=CCCC3)s2)c1[N+](=O)[O-]	> 10	IC50 (FFLUC_HILL_SLOPE 0.804, FFLUC_R_SQUARED 0.918, PBLUC_HILL_SLOPE 0.696, PBLUC_R_SQUARED 0.659, read-out: LUCIFERASE INFECTION ASSAY - IC50): 0.463 µM
Cc1ccc(C)c(-n2c(SC(C)c3nc(N)nc(N(C)C)n3)nc3ccccc3c2=O)c1 (centres undefined)	> 10	IC50 (FFLUC_HILL_SLOPE 0.719, FFLUC_R_SQUARED 0.145, PBLUC_HILL_SLOPE 15.9, PBLUC_R_SQUARED 0.219, read-out: LUCIFERASE INFECTION ASSAY - IC50): 9.47 µM
C#Cc1cccc(NC(=O)c2ccc(C(C)(C)C)s2)c1	8.24	IC50 (FFLUC_HILL_SLOPE 0.741, FFLUC_R_SQUARED 0.211, PBLUC_HILL_SLOPE 2.38, PBLUC_R_SQUARED 0.594, read-out: LUCIFERASE INFECTION ASSAY - IC50): 3.28 µM
CS(=O)(=O)c1ccccc1NC(=O)COC(=O)c1cccnc1N	> 10	IC50 (FFLUC_HILL_SLOPE 0.757, FFLUC_R_SQUARED 0.634, read-out: LUCIFERASE INFECTION ASSAY - IC50): > 10 µM
Cc1c(OCC(=O)Nc2ccccc2)ccc2c1OC(C)(C)C=C2	0.79	IC50 (FFLUC_HILL_SLOPE 0.847, FFLUC_R_SQUARED 0.632, PBLUC_HILL_SLOPE 1.69, PBLUC_R_SQUARED 0.702, read-out: LUCIFERASE INFECTION ASSAY - IC50): 0.216 µM
N#C/C(=C\Nc1cc(C(F)(F)F)cc(C(F)(F)F)c1)S(=O)(=O)c1ccccc1	> 7.85	IC50 (FFLUC_HILL_SLOPE 0.883, FFLUC_R_SQUARED 0.592, HEPG2TOX_HILL_SLOPE 1.61, HEPG2TOX_R_SQUARED 0.979, PBLUC_HILL_SLOPE 2.79, PBLUC_R_SQUARED 0.181, read-out: LUCIFERASE INFECTION ASSAY - IC50): 4.35 µM
O=C(NCCC1=CCCCC1)c1cccc(N2CCCC2=O)c1	> 10	IC50 (FFLUC_HILL_SLOPE 0.738, FFLUC_R_SQUARED 0.473, PBLUC_HILL_SLOPE 0.427, PBLUC_R_SQUARED 0.183, read-out: LUCIFERASE INFECTION ASSAY - IC50): > 10 µM
CCc1cn(Cc2ccccc2)c[n+]1Cc1ccccc1	> 10.5	IC50 (FFLUC_HILL_SLOPE 0.817, FFLUC_R_SQUARED 0.751, PBLUC_HILL_SLOPE 3.02, PBLUC_R_SQUARED 0.429, read-out: LUCIFERASE INFECTION ASSAY - IC50): 5.71 µM
CC(C)OCCCn1c(S/C=C/c2ccc([N+](=O)[O-])o2)nc2ccccc2c1=O	> 10	IC50 (FFLUC_HILL_SLOPE 0.75, FFLUC_R_SQUARED 0.0694, read-out: LUCIFERASE INFECTION ASSAY - IC50): > 10 µM
CSc1ccc(C2=NNC(=NC3CC3)SC2)cc1	> 10	IC50 (FFLUC_HILL_SLOPE 0.857, FFLUC_R_SQUARED 0.948, PBLUC_HILL_SLOPE 0.604, PBLUC_R_SQUARED 0.771, read-out: LUCIFERASE INFECTION ASSAY - IC50): 0.467 µM
Cc1oc2[nH]cnc(=O)c2c1C(=O)Nc1ccccc1Cc1ccccc1	> 10	IC50 (FFLUC_HILL_SLOPE 0.892, FFLUC_R_SQUARED 0.572, PBLUC_HILL_SLOPE 0.52, PBLUC_R_SQUARED 0.732, read-out: LUCIFERASE INFECTION ASSAY - IC50): 2.73 µM
COc1cc(/C=N/NC(=S)Nc2ccccc2OC)ccc1O	> 9.96	IC50 (FFLUC_HILL_SLOPE 0.707, FFLUC_R_SQUARED 0.581, PBLUC_HILL_SLOPE 0.242, PBLUC_R_SQUARED 0.281, read-out: LUCIFERASE INFECTION ASSAY - IC50): > 9.96 µM
CCOC(=O)c1c(-c2ccccc2)oc2ccc(NS(=O)(=O)c3ccc(CC)cc3)cc12	9.53	IC50 (FFLUC_HILL_SLOPE 0.825, FFLUC_R_SQUARED 0.206, HEPG2TOX_HILL_SLOPE 3.18, HEPG2TOX_R_SQUARED 0.941, PBLUC_HILL_SLOPE 22.5, PBLUC_R_SQUARED 0.586, read-out: LUCIFERASE INFECTION ASSAY - IC50): 8.65 µM
